Data published in US4382030A, “2-Acylaminomethyl-1,4-benzodiazepine derivatives and their salts, pharmaceutical compositions thereof and process for their preparation” (Kali-Chemie Pharma GmbH, priority 1979, dated 1983).

Experiments:
Format in all cases: in vivo
[1] = tested on: rats (secondary arthritis pain, mycobacterium smegmae); assay: Arthritis Pain Test in Rats; conditions: po, rat, p.o., 3 hours after administration, protection in 50% of treated animals
Procedure: (§1) This analgesic activity has been evaluated in two pharmacological standard methods, the tail flick test in mice and the arthritis pain test in rats.
2. Arthritis Pain Test in Rats.
Male rats having a weight of from 160 to 180 g are anesthetized by small i.p. injection of 20 mg/kg of sodium pentobarbital and 0.1 ml of a suspension of mycobacterium smegmae (SI 043) in liquid paraffin (0.6 mg mycobacterium/0.1 ml of oil) are injected intracutaneously into the left rear paw. Fourteen days later when a marked secondary arthritis has developed in particular in the right rear paw, the effect of the test compound is evaluated. A control-reading is taken 30 minutes prior to administration of the test compound by bending the foot joint of the right rear paw three times and counting the number of squeakings. […] Three hours after oral administration of the test compound the bending of the joint is repeated. Animals which squeak only once or not at all are considered to be protected against pain. Between about 9 and 20 rats are used per dose and the ED50 (95% reliability) is determined according to the method of Litchfield and Wilcoxon (1949). The dose which provides protection in 50% of the treated animals is taken as ED50.

[2] = tested on: mice (tail flick, heat beam pain reaction); assay: Tail flick Test in Mice; conditions: sc, 0.5 h; mouse, s.c.; 30 minutes after administration; >75% increase of reaction time in 50% of animals
Procedure: as §1
3. Tail flick Test in Mice.
This test is carried out according to the method described by D'Amour and Smith (1941), yet fed male and female mice having a body weight of 16 to 25 g are used instead of rats. Thirty minutes prior to treatment with the test compound, each mouse is placed separately in a cylindrical container in such a manner that it cannot turn itself or move forward. Its tail is positioned in a narrow groove projecting out of the container. A certain point of the tail of each animal (about 35 mm beyond the root of the tail) is subjected to the heat beam of a lamp of known strength and temperature which is positioned directly under the tail. The number of seconds which pass before the mouse moves its tail out of the light beam is determined twice, once 30 minutes and once 15 minutes prior to subcutaneous administration of the test compound (10 mg/kg). Mice which show a reaction time differing more than 25% are eliminated from the test. The reaction time is again determined 15 minutes and 30 minutes after the treatment and an increase of the reaction period of more than 75% of the average values prior to treatment in the same animal is considered as showing an analgesic effect. The ED50 (95% reliability) of each test compound 30 minutes after administration is evaluated according to the method of Litchfield and Wilcoxon (1949). The dose which increases the reaction time as compared to the reaction time prior to treatment for more than 75% in 50% of the animals is considered as ED50.

male mice = assay: Determination of the Minimal Toxic Dose (oral, mice); conditions: mouse, p.o.; observed 3 h, symptoms and deaths over 24 h
Procedure: 1. Determination of the Minimal Toxic Dose.
Maximum doses of 300 mg/kg of the test compound are administered orally to three male mice having a weight of 20-25 g and toxicity symptoms are carefully observed for a period of three hours. Furthermore, over a period of 24 hours from the administration all symptoms and deaths are registered. Side-symptoms are also observed and registered. Depending on their water solubility, the test compounds are administered either in form of aqueous solutions or in form of suspensions without the use of solvents. In order to maintain a stable suspension of the test compound, one drop of Tween-80 can be added and the mixture can be mechanically homogenized. In the case of compounds where deaths or toxic symptoms have been observed, additional mice are treated with decreasing doses until a dose is reached at which no toxic symptoms occur. The lowest dose which causes toxic symptoms is considered the minimal toxic dose.

CN1c2ccccc2C(c2ccccc2)=NCC1CNC(=O)c1cccs1 (stereo not drawn) [Compound 1, 1-methyl-2-[(thiophene-2-carbonyl)-aminomethyl]-5-phenyl-1H-2,3-dihydro-1,4-benzodiazepine]
ED50 [1]: 13 mg/kg
ED50 [2]: 2.8 mg/kg
MDL (minimal toxic dose) (male mice): > 300 mg/kg

CN1c2ccccc2C(c2ccccc2)=NCC1CNC(=O)c1ccco1 (stereo not drawn) [Compound 2, 1-methyl-2-[(furane-2-carbonyl)-aminomethyl]-5-phenyl-1H-2,3-dihydro-1,4-benzodiazepine]
ED50 [1]: 32 mg/kg
ED50 [2]: 2.8 mg/kg
MDL (minimal toxic dose) (male mice): > 300 mg/kg

COc1ccc2c(c1)N(C)C(CNC(=O)c1cccs1)CN=C2c1ccccc1 (stereo not drawn) [Compound 3, 8-methoxy-1-methyl-2-[(thiophene-2-carbonyl)-aminomethyl]-5-phenyl-1H-2,3-dihydro-1,4-benzodiazepine]
ED50 [1]: 20 mg/kg
ED50 [2]: 5.3 mg/kg
MDL (minimal toxic dose) (male mice): > 200 mg/kg

COc1ccc2c(c1)N(C)C(CNC(=O)c1ccco1)CN=C2c1ccccc1 (stereo not drawn) [Compound 4, 8-methoxy-1-methyl-2-[(furane-2-carbonyl)-aminomethyl]-5-phenyl-1H-2,3-dihydro-1,4-benzodiazepine]
ED50 [1]: 21 mg/kg
ED50 [2]: 7 mg/kg
MDL (minimal toxic dose) (male mice): > 200 mg/kg

COc1ccc2c(c1)N(C)C(CNC(=O)c1ccsc1)CN=C2c1ccccc1 (stereo not drawn) [Compound 5, 8-methoxy-1-methyl-2-[(thiophene-3-carbonyl)-aminomethyl]-5-phenyl-1H-2,3-dihydro-1,4-benzodiazepine]
ED50 [1]: 15 mg/kg
ED50 [2]: 2.4 mg/kg
MDL (minimal toxic dose) (male mice): > 200 mg/kg

COc1ccc2c(c1)N(C)C(CNC(=O)c1ccoc1)CN=C2c1ccccc1 (stereo not drawn) [Compound 6, 8-methoxy-1-methyl-2-[(furane-3-carbonyl)-aminomethyl]-5-phenyl-1H-2,3-dihydro-1,4-benzodiazepine]
ED50 [1]: 9 mg/kg
ED50 [2]: 2.8 mg/kg
MDL (minimal toxic dose) (male mice): > 50 mg/kg

CN1c2ccccc2C(c2ccccc2)=NCC1CNC(=O)c1ccsc1 (stereo not drawn) [Compound 7, 1-methyl-2-[(thiophene-3-carbonyl)-aminomethyl]-5-phenyl-1H-2,3-dihydro-1,4-benzodiazepine]
ED50 [1]: 19 mg/kg
ED50 [2]: 0.22 mg/kg
MDL (minimal toxic dose) (male mice): > 200 mg/kg

Cc1cc2c(cc1C)N(C)C(CNC(=O)c1ccoc1)CN=C2c1ccccc1 (stereo not drawn) [Compound 8, 1,7,8-trimethyl-2-[(furane-3-carbonyl)-aminomethyl]-5-phenyl-1H-2,3-dihydro-1,4-benzodiazepine]
ED50 [1]: 14 mg/kg
ED50 [2]: 8 mg/kg
MDL (minimal toxic dose) (male mice): > 200 mg/kg

COc1ccc2c(c1)N(C)C(CNC(=O)c1ccc(C)s1)CN=C2c1ccccc1 (stereo not drawn) [Compound 9, 8-methoxy-1-methyl-2-[(5-methylthiophene-2-carbonyl)-aminomethyl]-5-phenyl-1H-2,3-dihydro-1,4-benzodiazepine]
ED50 [1]: 14 mg/kg
ED50 [2]: 5.6 mg/kg
MDL (minimal toxic dose) (male mice): > 200 mg/kg

Cc1ccc2c(c1)C(c1ccccc1)=NCC(CNC(=O)c1ccsc1)N2C (stereo not drawn) [Compound 10, 1,7-dimethyl-2-[(thiophene-3-carbonyl)-aminomethyl]-5-phenyl-1H-2,3-dihydro-1,4-benzodiazepine]
ED50 [1]: 32 mg/kg
ED50 [2]: 3.2 mg/kg
MDL (minimal toxic dose) (male mice): > 300 mg/kg

Cc1ccc2c(c1)C(c1ccccc1)=NCC(CNC(=O)c1ccoc1)N2C (stereo not drawn) [Compound 11, 1,7-dimethyl-2-[(furane-3-carbonyl)-aminomethyl]-5-phenyl-1H-2,3-dihydro-1,4-benzodiazepine]
ED50 [1]: 30 mg/kg
ED50 [2]: 1.2 mg/kg
MDL (minimal toxic dose) (male mice): > 300 mg/kg

Cc1ccc(C(=O)NCC2CN=C(c3ccccc3)c3ccccc3N2C)s1 (stereo not drawn) [Compound 12, 1-methyl-2-[(5-methylthiophene-2-carbonyl)-aminomethyl]-5-phenyl-1H-2,3-dihydro-1,4-benzodiazepine]
ED50 [1]: 10 mg/kg
ED50 [2]: 2.8 mg/kg
MDL (minimal toxic dose) (male mice): > 300 mg/kg

CCOc1ccc2c(c1)N(C)C(CNC(=O)c1ccoc1)CN=C2c1ccccc1 (stereo not drawn) [Compound 13, 8-ethoxy-1-methyl-2-[(furane-3-carbonyl)-aminomethyl]-5-phenyl-1H-2,3-dihydro-1,4-benzodiazepine]
ED50 [1]: 15 mg/kg
ED50 [2]: 6 mg/kg
MDL (minimal toxic dose) (male mice): > 200 mg/kg

COc1cccc(C2=NCC(CNC(=O)c3ccco3)N(C)c3ccccc32)c1 (stereo not drawn) [Compound 14, 1-methyl-2-[(furane-2-carbonyl)-aminomethyl]-5-(3-methoxyphenyl)-1H-2,3-dihydro-1,4-benzodiazepine]
ED50 [1]: 32 mg/kg
ED50 [2]: 1.6 mg/kg
MDL (minimal toxic dose) (male mice): > 300 mg/kg

COc1ccc2c(c1)C(c1ccccc1)=NCC(CNC(=O)c1ccoc1)N2C (stereo not drawn) [Compound 15, 7-methoxy-1-methyl-2-[(furane-3-carbonyl)-aminomethyl]-5-phenyl-1H-2,3-dihydro-1,4-benzodiazepine]
ED50 [1]: 32 mg/kg
ED50 [2]: 8.5 mg/kg
MDL (minimal toxic dose) (male mice): > 300 mg/kg

COc1cccc(C2=NCC(CNC(=O)c3ccsc3)N(C)c3ccccc32)c1 (stereo not drawn) [Compound 16, 1-methyl-2-[(thiophene-3-carbonyl)-aminomethyl]-5-(3-methoxyphenyl)-1H-2,3-dihydro-1,4-benzodiazepine]
ED50 [1]: 32 mg/kg
ED50 [2]: 0.5 mg/kg
MDL (minimal toxic dose) (male mice): > 300 mg/kg

CCN1c2ccccc2C(c2ccccc2)=NCC1CNC(=O)c1ccoc1 (stereo not drawn) [Compound 17, 1-ethyl-2-[(furane-3-carbonyl)-aminomethyl]-5-phenyl-1H-2,3-dihydro-1,4-benzodiazepine]
ED50 [1]: 22 mg/kg
ED50 [2]: 2.6 mg/kg
MDL (minimal toxic dose) (male mice): > 200 mg/kg

CN1c2ccccc2C(c2ccccc2F)=NCC1CNC(=O)c1ccco1 (stereo not drawn) [Compound 18, 1-methyl-2-[(furane-2-carbonyl)-aminomethyl]-5-(2-fluorophenyl)-1H-2,3-dihydro-1,4-benzodiazepine]
ED50 [1]: 18 mg/kg
ED50 [2]: 4.1 mg/kg
MDL (minimal toxic dose) (male mice): > 300 mg/kg

CN1c2ccccc2C(c2ccccc2F)=NCC1CNC(=O)c1ccoc1 (stereo not drawn) [Compound 19, 1-methyl-2-[(furane-3-carbonyl)-aminomethyl]-5-(2-fluorophenyl)-1H-2,3-dihydro-1,4-benzodiazepine]
ED50 [1]: 13 mg/kg
ED50 [2]: 0.56 mg/kg
MDL (minimal toxic dose) (male mice): > 300 mg/kg

CN1c2ccccc2C(c2ccccc2F)=NCC1CNC(=O)c1ccsc1 (stereo not drawn) [Compound 20, 1-methyl-2-[(thiophene-3-carbonyl)-aminomethyl]-5-(2-fluorophenyl)-1H-2,3-dihydro-1,4-benzodiazepine]
ED50 [1]: 18 mg/kg
ED50 [2]: 1.1 mg/kg
MDL (minimal toxic dose) (male mice): > 300 mg/kg

CN1c2ccccc2C(c2ccccc2F)=NCC1CNC(=O)c1cccs1 (stereo not drawn) [Compound 21, 1-methyl-2-[(thiophene-2-carbonyl)-aminomethyl]-5-(2-fluorophenyl)-1H-2,3-dihydro-1,4-benzodiazepine]
ED50 [1]: 13 mg/kg
ED50 [2]: 6.2 mg/kg
MDL (minimal toxic dose) (male mice): > 300 mg/kg
